Measured values reported in patent publication US20230292743A1, “Method for increasing the lifespan and motility of animal sperm using an inhibitor of Slo3 potassium channel” (IMV TECHNOLOGIES, priority 2017, published 2023).

Key:
bovine sperm [1] = assay: Bovine sperm motility by CASA analysis (VCL, total motility) after 24 h in capacitation medium; assay type: cell-based; details: 24 h in capacitation medium at 37° C., vs control
Protocol: For motility, sperm were incubated with 0.2, 0.5, 1 and 5 μM clofilium diluted in the capacitation medium for 24 hours at 37° C. under saturated humidity. Sperm motility was measured using Computer Assisted Semen Analysis (CASA analysis). The CASA analysis was performed using a CEROS™, Hamilton Thorne Bioscience, USA. VCL (curvilinear velocity) was then measured. 2. The viability of the capacitated sperm was determined by the measurement of the sperm motility. The motility analysis was carried out as in Example 1.3. The first results are shown in FIGS. 6A and 6B, which illustrates the motility (in terms of VCL, in μm/s), i.e. the sperm velocity, sperm being incubated 24 h in a capacitation medium prior CASA, for each of the solutions tested: control (“[0 μM]”), 0.2 μM clofilium (“[0.2 μM]”), 0.5 μM clofilium (“[0.5 μM]” or “[0.5]”), 1 μM clofilium (“[1 μM]” or “[1]”) and 5 μM clofilium (“[5 μM]” or “[5]”) (FIG. 6A) and which illustrates the total motility (%), for each of the solutions tested “[0μM ]”, “[0.2 μM]” (or “[0.2]”), “[0.5 μM ]” (or “[0.5]”), “[1 μM ]” (or “[1]”) and “[5 μM ]” (or “[5]”) (FIG. 6B). As known to the skilled person, the “total motility”indicates the overall percentage of sperm that are moving in any direction (VAP>1μm/s).

bovine sperm [2] = assay: In vitro fertilization with bovine sperm frozen with clofilium, washed or not washed after thawing; assay type: cell-based; details: bovine sperm frozen with 0.2 μM clofilium, vs control
Protocol: In order to be as close as possible of the possible field usage, sperm were frozen with clofilium prior to test their ability to improve fertilization. Two conditions were tested: in the first one, clofilium was present during the sperm incubation period, and in the second one, sperm was washed to remove clofilium in order to mimic the condition that may occur in the female reproductive tract. Straws containing clofilium were obtained as described below. Bovine ejaculate was split into two fractions, and diluted 1:1 in either Optixcell (Fraction 1) or Optixcell containing clofilium 0.2 μM (Fraction 2). After 10 minutes of 34° C. incubation, semen was then diluted to a final concentration of 57 million of spermatozoa/ml in Optixcell (Fraction 1) or Optixcell containing clofilium 0.2 μM (Fraction 2). Diluted semen was frozen as described above and stored in liquid nitrogen until in vitro fertilization. Two types of straws were used: control straws and straws containing clofilium. For straws containing clofilium, two conditions were tested: washed and not washed. The wash medium is a commonly used medium, sp-TALP, for bovine sperm handling and which composition is described above. For “not washed” conditions, sperm were incubated with sp-TALP containing 0.2 μM clofilium. […]

Structure (SMILES): CCCCCCC[N+](CC)(CC)CCCCc1ccc(Cl)cc1 [clofilium]
- motility (in terms of VCL), sperm velocity (bovine sperm [1]; 0.2 μM clofilium): higher velocity than the non-treated
- motility (in terms of VCL), sperm velocity (bovine sperm [1]; 0.5 μM clofilium): higher velocity than the non-treated
- motility (in terms of VCL), sperm velocity (bovine sperm [1]; 1 μM clofilium): higher velocity than the non-treated
- percentage of 2-cell embryos vs matured oocytes at 24 h post fertilization (bovine sperm [2]; not washed (clofilium present in sp-TALP), up to 48 h incubation): positive effect on embryo outcome lasted 48 hours
- percentage of 2-cell embryos vs matured oocytes at 24 h post fertilization (bovine sperm [2]; washed clofilium, 24 h incubation in sp-TALP): positive effect at 24 hours is still present, although lower
- percentage of 2-cell embryos vs matured oocytes at 24 h post fertilization (bovine sperm [2]; washed clofilium, 48 h incubation in sp-TALP): the effect is no longer present
